Where a name gives a salt, the structure may show the parent alone.
Assays:
purified CK2α enzyme = purified CK2α enzyme (Homo sapiens, UniProt P68400); assay: CK2 Protein Kinase Inhibition Assay (coupled PK/LDH assay); format: biochemical; conditions: CK2 enzyme 25 nM, 100 μM ATP, 37° C., Morrison equation
Method in brief: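 Purified CK2α at 25 nM final, 1.5 mM peptide substrate, 100 μM ATP, pH 8.25 Tris buffer; compounds pre-incubated 10 min at 37° C. ADP coupled via PK/LDH to NADH loss at 340 nm over 30 min, 37° C. Ki from rate versus concentration by Morrison equation, triplicate points.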

Chain of purified CK2α enzyme (P68400 whole entry): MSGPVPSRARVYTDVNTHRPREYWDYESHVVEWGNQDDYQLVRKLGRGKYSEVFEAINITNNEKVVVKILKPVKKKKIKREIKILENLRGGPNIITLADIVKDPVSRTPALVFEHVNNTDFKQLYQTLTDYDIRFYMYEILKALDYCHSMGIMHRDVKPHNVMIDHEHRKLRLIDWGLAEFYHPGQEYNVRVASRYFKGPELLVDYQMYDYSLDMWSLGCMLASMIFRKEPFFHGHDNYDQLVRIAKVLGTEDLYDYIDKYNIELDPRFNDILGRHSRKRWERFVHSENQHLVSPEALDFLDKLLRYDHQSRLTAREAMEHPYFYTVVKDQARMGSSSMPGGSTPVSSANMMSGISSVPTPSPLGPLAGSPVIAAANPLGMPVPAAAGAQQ

SMILES	Ki (purified CK2α enzyme) [nM]	melting point [°C]
CS(=O)(=O)Cc1cc(Nc2cc(NC3CC3)n3ncc(C#N)c3n2)ccc1OC(F)F [Example 20, 7-(Cyclopropylamino)-5-((4-(difluoromethoxy)-3-((methylsulfonyl)methyl)phenyl)amino)pyrazolo[1,5-a]pyrimidine-3-carbonitrile]	< 2.5	> 260
C[S+]([O-])Cc1cc(Nc2cc(NC3CC3)n3ncc(C#N)c3n2)ccc1N1CCC1 (racemic) [Example 37, (±)-5-((4-(Azetidin-1-yl)-3-((methylsulfinyl)methyl)phenyl)amino)-7-(cyclopropylamino)pyrazolo[1,5-a]pyrimidine-3-carbonitrile]	< 2.5	204 to 207
CN(CCN)c1ccc(Nc2nc(NC3CC3)n3ncc(C#N)c3n2)cc1CS(C)(=O)=O (as salt: trifluoroacetic acid salt) [Example 52, 2-((4-((2-aminoethyl)(methyl)amino)-3-((methylsulfonyl)methyl)phenyl)amino)-4-(cyclopropylamino)pyrazolo[1,5-a][1,3,5]triazine-8-carbonitrile mono trifluoroacetic acid salt]		55 to 59
CN(CC(C)(C)N)c1ccc(Nc2cc(NC3CC3)n3ncc(C#N)c3n2)cc1C[S+](C)[O-] (racemic) (as salt: trifluoroacetic acid salt) [Example 67, (±)-5-((4-((2-Amino-2-methylpropyl)(methyl)amino)-3-((methylsulfinyl)methyl)phenyl)amino)-7-(cyclopropylamino)pyrazolo[1,5-a]pyrimidine-3-carbonitrile mono trifluoroacetic acid salt]		141 to 145
C[S+]([O-])Cc1cc(Nc2cc(NC3CC3)n3ncc(C#N)c3n2)ccc1C1=CCNC1 (racemic) (as salt: trifluoroacetic acid salt) [Example 62, (±)-7-(Cyclopropylamino)-5-((4-(2,5-dihydro-1H-pyrrol-3-yl)-3-((methylsulfinyl)methyl)phenyl)amino)pyrazolo[1,5-a]pyrimidine-3-carbonitrile mono trifluoroacetic acid salt]		147 to 151
CC(N)c1ccc(Nc2cc(NC3CC3)n3ncc(C#N)c3n2)cc1C[S+](C)[O-] (racemic) (as salt: trifluoroacetic acid salt) [Example 58, (±)-5-((4-((R,S)-1-Aminoethyl)-3-((methylsulfinyl)methyl)phenyl)amino)-7-(cyclopropylamino)pyrazolo[1,5-a]pyrimidine-3-carbonitrile mono trifluoroacetic acid salt]		161 to 165

Continued, values first:

Ki (purified CK2α enzyme) [nM]	melting point [°C]	SMILES
	91 to 94	CN(CCN)c1ccc(Nc2cc(NC3CC3)c3ncc(C#N)n3n2)cc1C[S+](C)[O-] (racemic) (as salt: trifluoroacetic acid salt) [Example 47, (±)-6-((4-((2-Aminoethyl)(methyl)amino)-3-((methylsulfinyl)methyl)phenyl)amino)-8-(cyclopropylamino)imidazo[1,2-b]pyridazine-3-carbonitrile mono trifluoroacetic acid salt]
	113 to 117	CN(CCN)c1ccc(Nc2nc(NC3CC3)c3ncc(C#N)n3n2)cc1CS(C)(=O)=O (as salt: trifluoroacetic acid salt) [Example 50, 2-((4-((2-aminoethyl)(methyl)amino)-3-((methylsulfonyl)methyl)phenyl)amino)-4-(cyclopropylamino)imidazo[2,1-f][1,2,4]triazine-7-carbonitrile mono trifluoroacetic acid salt]
	121 to 124	CN(CCN)c1ccc(Nc2cc(NC3CC3)c3ncc(C#N)n3n2)cc1CS(C)(=O)=O (as salt: trifluoroacetic acid salt) [Example 48, 6-((4-((2-aminoethyl)(methyl)amino)-3-((methylsulfonyl)methyl)phenyl)amino)-8-(cyclopropylamino)imidazo[1,2-b]pyridazine-3-carbonitrile mono trifluoroacetic acid salt]

From patent US10227344B2, “CK2 inhibitors, compositions and methods thereof” (Polaris Pharmaceuticals, Inc., priority 2016, dated 2019)
